Assay: xn = mol fraction of the nth substance listed, in the solute-free solvent

Cc1ccc(-c2cc(C(F)(F)F)nn2-c2ccc(S(N)(=O)=O)cc2)cc1 + CN1CCCC1=O + CCO
solubility (g/100 g solution)
Conditions | x2 = 0.0491 | x2 = 0.1041 | x2 = 0.1661 | x2 = 0.2365 | x2 = 0.3173 | x2 = 0.4108 | x2 = 0.5202 | x2 = 0.6502 | x2 = 0.8071
293.15 K | 8.15 | 8.62 | 9.04 | 9.29 | 9.69 | 10.4 | 12.6 | 14.8 | 17.6
298.15 K | 8.96 | 9.87 | 10.4 | 10.9 | 11.4 | 12.6 | 14.7 | 16.8 | 19.6
303.15 K | 10.2 | 10.9 | 11.3 | 12.3 | 12.9 | 14.4 | 16.7 | 18.8 | 22
308.15 K | 11.1 | 11.8 | 12.6 | 13.8 | 14.3 | 16.4 | 18.8 | 20.9 | 23.9
313.15 K | 12.1 | 12.7 | 13.9 | 15.2 | 15.9 | 19 | 21.3 | 23.5 | 25.9

O=C1C=CC(=O)N1c1ccccc1Br + CN1CCCC1=O + O
solubility (g/100 g solution)
Conditions | 278.15 K | 283.15 K | 288.15 K | 293.15 K | 298.15 K | 303.15 K | 308.15 K | 313.15 K | 318.15 K | 323.15 K
x2 = 0.0198 | 0.759 | 0.975 | 1.23 | 1.5 | 1.9 | 2.31 | 2.81 | 3.43 | 4.09 | 4.91
x2 = 0.04347 | 2.17 | 2.74 | 3.4 | 4.11 | 5.08 | 6.17 | 7.35 | 8.81 | 10.3 | 12.2
x2 = 0.07228 | 4.95 | 6.03 | 7.43 | 8.92 | 10.6 | 12.4 | 14.7 | 17.2 | 19.7 | 22.4
x2 = 0.1081 | 8.04 | 9.64 | 11.7 | 13.7 | 16.3 | 18.8 | 21.8 | 24.8 | 28 | 31.5
x2 = 0.1538 | 12.4 | 14.7 | 17.1 | 20 | 22.9 | 26.2 | 29.7 | 33.3 | 36.9 | 40.5
x2 = 0.2143 | 16.7 | 19.8 | 22.4 | 25.9 | 29.3 | 33.2 | 37 | 40.7 | 44.8 | 48.7
x2 = 0.2979 | 21.5 | 24.7 | 28.1 | 31.6 | 35.2 | 39.1 | 43.5 | 47.2 | 51.2 | 55.1
x2 = 0.421 | 24.7 | 28.2 | 31.9 | 35.7 | 40 | 44.2 | 48.6 | 52.7 | 56.9 | 60.9
x2 = 0.6207 | 26.4 | 29.9 | 34.1 | 38.1 | 42 | 46.6 | 50.6 | 55.1 | 59.5 | 63.9

O=c1cc(CBr)c2ccccc2[nH]1 + CN1CCCC1=O + O
solubility (g/100 g solution)
Conditions | 278.15 K | 283.15 K | 288.15 K | 293.15 K | 298.15 K | 303.15 K | 308.15 K | 313.15 K | 318.15 K
x2 = 0.0198 | 0.0293 | 0.0392 | 0.0514 | 0.0682 | 0.0873 | 0.117 | 0.149 | 0.189 | 0.234
x2 = 0.04347 | 0.107 | 0.136 | 0.176 | 0.223 | 0.281 | 0.361 | 0.442 | 0.546 | 0.67
x2 = 0.07228 | 0.271 | 0.344 | 0.428 | 0.538 | 0.646 | 0.804 | 0.971 | 1.16 | 1.41
x2 = 0.1081 | 0.494 | 0.611 | 0.762 | 0.924 | 1.12 | 1.37 | 1.66 | 1.97 | 2.35
x2 = 0.1538 | 0.764 | 0.928 | 1.13 | 1.36 | 1.65 | 1.94 | 2.3 | 2.71 | 3.16
x2 = 0.2143 | 1.04 | 1.24 | 1.5 | 1.76 | 2.11 | 2.47 | 2.9 | 3.34 | 3.89
x2 = 0.2979 | 1.24 | 1.48 | 1.76 | 2.07 | 2.46 | 2.87 | 3.32 | 3.82 | 4.37
x2 = 0.421 | 1.38 | 1.62 | 1.91 | 2.24 | 2.57 | 2.99 | 3.44 | 3.93 | 4.47
x2 = 0.6207 | 1.42 | 1.64 | 1.9 | 2.19 | 2.5 | 2.89 | 3.26 | 3.7 | 4.17

CC1=NNC(=O)N(N=Cc2cccnc2)C1 + CN(C)C=O + CC(C)O
solubility (g/100 g solution)
Conditions | 278.15 K | 283.15 K | 288.15 K | 293.15 K | 298.15 K | 303.15 K | 308.15 K | 313.15 K | 318.15 K
x2 = 0.1705 | 0.264 | 0.304 | 0.352 | 0.405 | 0.466 | 0.532 | 0.612 | 0.697 | 0.796
x2 = 0.354 | 0.455 | 0.512 | 0.588 | 0.68 | 0.777 | 0.896 | 1.02 | 1.15 | 1.3
x2 = 0.5522 | 0.614 | 0.694 | 0.802 | 0.91 | 1.04 | 1.18 | 1.33 | 1.5 | 1.69
x2 = 0.7668 | 0.771 | 0.871 | 0.998 | 1.13 | 1.29 | 1.47 | 1.65 | 1.85 | 2.1

From the CheMixHub drug solubility set
